Several values for one entry are separate records, joined by “and”; a condition that tells them apart may be missing. Equal entries are not always repeated. Activity calls are given as the source filed them.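 Rule for the calls: active = virus-caused cell damage raised over twofold versus untreated cells in three repeats, without toxicity at overlapping doses; inactive = the rest.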
System: PC3 cells, HSV G47-delta CPE, CellTiter-Glo, 96 h
Experiment: augmentation of HSV G47-delta CPE in PC3 cells – cell-based, CellTiter-Glo, secondary, confirmation (AID 588782);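 for CPE increase: percent rise in virus-caused cell damage over infected cultures given no drug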
Conditions: for outcome / CPE increase: at 10 µM; for CPE increase: stronger effect = higher value; for CC50: measured here: PC3 cytotoxicity

SMILES | outcome | CPE increase | CC50
COc1ccc(C(=O)OCCCNCCNCCCOC(=O)c2ccc(OC)cc2)cc1 | inactive | 19.8% (inactive) | > 93 µM and 21.7 µM
CNCCN(C)CCCOC(=O)c1ccc(F)cc1 | inactive |  | > 100 µM
COc1ccc(C(=O)OCCN2CCCN(Cc3ccccc3)CC2)cc1 | inactive |  | > 100 µM
O=C(OCCCN1CCCN(CCCOC(=O)c2ccccc2)CC1)c1ccccc1 | inactive |  | > 100 µM
COc1ccc(C(=O)OCCN2CCCN(C)CC2)cc1 |  | 27.1% (inactive) | > 100 µM
COc1cc(C(=O)OCCN2CCN(CCOC(=O)c3cc(OC)c(OC)c(OC)c3)CC2)cc(OC)c1OC | inactive |  | > 100 µM
COc1cc(C(=O)OCCN2CCN(C)CC2)cc(OC)c1OC | inactive |  | > 100 µM
COc1cc(C(=O)OCCCN2CCCC2)cc(OC)c1OC | inactive |  | > 100 µM
CNCCN(C)CCOC(=O)c1cc(OC)c(OC)c(OC)c1 | inactive |  | > 100 µM
COc1cc(C(=O)OCCCN2CCN(CCCOC(=O)c3cc(OC)c(OC)c(OC)c3)CC2)cc(OC)c1OC | inactive |  | > 100 µM
COc1cc(C(=O)OCCN2CCCC2)cc(OC)c1OC | inactive |  | > 100 µM
COc1cc(NC(=O)Nc2cc(OC)c(OC)c(OC)c2)cc(OC)c1OC | inactive |  | > 100 µM
COc1cc(OC)cc(C(=O)OCCN2CCCN(CCOC(=O)c3cc(OC)cc(OC)c3)CC2)c1 | inactive |  | > 100 µM
COc1cc(CN2CCCN(Cc3cc(OC)c(OC)c(OC)c3)CC2)cc(OC)c1OC | inactive |  | > 100 µM
COc1ccc(C(=O)NCCCN2CCCN(C)CC2)cc1 | inactive |  | > 100 µM
COc1cc(NC(=O)N2CCCN(C(=O)Nc3cc(OC)c(OC)c(OC)c3)CC2)cc(OC)c1OC |  | 24.5% (inactive) | > 100 µM
O=C(OCCCN1CCN(CCCOC(=O)c2ccccc2)CC1)c1ccccc1 | inactive |  | > 100 µM
COc1cccc(C(=O)NCCCN2CCN(CCCNC(=O)c3cccc(OC)c3)CC2)c1 | inactive |  | > 100 µM
O=C(CCN1CCCN(CCC(=O)Nc2ccccc2)CC1)Nc1ccccc1 | inactive |  | > 100 µM
COc1cc(C(=O)OCCN2CCOCC2)cc(OC)c1OC | inactive |  | > 100 µM
COc1ccc(C(=O)OCCCN2CCN(C)CC2)cc1 | inactive |  | > 100 µM
COc1ccc(N2C(=O)CC(N3CCCN(C4CC(=O)N(c5ccc(OC)cc5)C4=O)CC3)C2=O)cc1 (configuration not stated) | inactive |  | > 100 µM
COc1ccc(C(=O)OCCCN2CCCN(CCCOC(=O)c3ccc(OC)cc3)CC2)cc1 | inactive |  | > 93 µM
COc1ccc(C(=O)OCCCN2CCOCC2)cc1 |  | 16.9% (inactive) | > 100 µM
COc1cc(C(=O)OCCN2CCCN(Cc3ccccc3)CC2)cc(OC)c1OC | inactive |  | > 100 µM

SMILES | outcome | CPE increase | CC50
O=C(OCCCN1CCOCC1)c1ccc(F)cc1 | inactive |  | > 100 µM
COc1ccc(C(=O)OCCN2CCN(CCOC(=O)c3ccc(OC)cc3)CC2)cc1 | inactive |  | > 100 µM
CNCCN(C)CCOC(=O)c1cc(OC)cc(OC)c1 | inactive |  | > 100 µM
COc1cc(C(=O)NCCCN2CCCN(CCCNC(=O)c3cc(OC)c(OC)c(OC)c3)CC2)cc(OC)c1OC |  | 16% (inactive) | > 100 µM
COc1cc(OC)cc(C(=O)OCCCNCCNCCCOC(=O)c2cc(OC)cc(OC)c2)c1 |  | 15.8% (inactive) | 32.1 µM
CC(=O)NCCCN1CCCN(CCCNC(C)=O)CC1 | inactive |  | > 100 µM
COc1cc(C(=O)OCCN2CCCN(C)CC2)cc(OC)c1OC | inactive |  | > 100 µM
COc1cc(OC)cc(C(=O)OCCN2CCCN(C)CC2)c1 | inactive |  | > 100 µM
COc1ccc(C(=O)OCCCN2CCCN(C)CC2)cc1 | inactive |  | > 100 µM
COc1cc(C(=O)OCCCN2CCN(C)CC2)cc(OC)c1OC | inactive |  | > 100 µM
COc1cc(C(=O)OCCCN2CCCN(C(=O)c3ccccc3)CC2)cc(OC)c1OC | inactive |  | > 100 µM
COc1cc(C(=O)OCCCN2CCCN(CCCOC(=O)c3cc(OC)c(OC)c(OC)c3)CC2)cc(OC)c1OC | inactive |  | > 100 µM
CN1CCCN(CCCOC(=O)c2ccccc2)CC1 | inactive |  | > 100 µM
COc1cc(OC)cc(C(=O)OCCN2CCN(C)CC2)c1 | inactive |  | > 100 µM
O=C(OCCCN1CCN(CCCOC(=O)c2ccc(F)cc2)CC1)c1ccc(F)cc1 | inactive |  | > 100 µM
COc1ccc(C(=O)OCCCN2CCN(CCCOC(=O)c3ccc(OC)cc3)CC2)cc1 | inactive |  | > 100 µM
COc1cc(C(=O)OCCCN2CCCNCC2)cc(OC)c1OC | inactive |  | > 100 µM
COc1ccc(C(=O)OCCCN2CCCC2)cc1 | inactive |  | > 100 µM
COc1cc(OC)cc(C(=O)OCCCN2CCCN(Cc3ccccc3)CC2)c1 | inactive |  | > 100 µM
COc1ccc(C(=O)OCCN2CCN(C)CC2)cc1 | inactive |  | > 100 µM
O=C(CN1CCCN(CC(=O)CN2C(=O)c3ccccc3C2=O)CC1)CN1C(=O)c2ccccc2C1=O | inactive |  | > 100 µM
COc1cc(OC)cc(C(=O)OCCCN2CCN(C)CC2)c1 | inactive |  | > 100 µM
COc1cc(C(=O)OCCCN2CCCN(C(=O)OC(C)(C)C)CC2)cc(OC)c1OC | inactive |  | > 100 µM
COc1cc(C(=O)OCCCN2CCCN(C)CC2)cc(OC)c1OC | inactive |  | > 100 µM
CN1CCCN(CCCOC(=O)c2ccc(F)cc2)CC1 | inactive |  | > 100 µM

SMILES | outcome | CPE increase | CC50
COc1cc(C(=O)OCCCN(C)CCN(C)CCCOC(=O)c2cc(OC)c(OC)c(OC)c2)cc(OC)c1OC | inactive |  | > 100 µM
NCCCN1CCCN(CCCN)CC1 | inactive |  | > 100 µM
O=C(/C=C/c1ccc2c(c1)OCO2)N1CCCN(C(=O)/C=C/c2ccc3c(c2)OCO3)CC1 | inactive |  | > 100 µM
COc1cc(C(=O)OCCCN2CCOCC2)cc(OC)c1OC | inactive |  | > 100 µM
COc1ccc(C(=O)OCCN2CCCN(CCOC(=O)c3ccc(OC)cc3)CC2)cc1 | inactive |  | > 100 µM
COc1cc(C(=O)OCCCN2CCCN(C(C)=O)CC2)cc(OC)c1OC | inactive |  | > 100 µM
COc1cc(C(=O)OCCCN2CCCN(CCOC(=O)c3cc(OC)c(OC)c(OC)c3)CC2)cc(OC)c1OC | inactive |  | > 100 µM
COc1cc(OC)cc(C(=O)OCCN2CCCC2)c1 | inactive |  | > 100 µM
CN1CCN(CCCOC(=O)c2ccc(F)cc2)CC1 | inactive |  | > 100 µM
CNCCN(C)CCCOC(=O)c1ccc(OC)cc1 | inactive |  | > 100 µM
COc1cc(OC)cc(C(=O)OCCCN2CCCN(C)CC2)c1 | inactive |  | > 100 µM
COc1cc(OC)cc(C(=O)OCCN2CCN(CCOC(=O)c3cc(OC)cc(OC)c3)CC2)c1 | inactive |  | > 100 µM
COc1cc(COCCCN2CCCN(CCCOCc3cc(OC)c(OC)c(OC)c3)CC2)cc(OC)c1OC | inactive |  | > 100 µM
COc1cc(-c2cn(CCCN3CCCN(CCCn4cc(-c5cc(OC)c(OC)c(OC)c5)nn4)CC3)nn2)cc(OC)c1OC | inactive |  | > 100 µM
COc1cc(OC)cc(C(=O)OCCN2CCOCC2)c1 | inactive |  | > 100 µM
COc1cc(OC)cc(C(=O)OCCCN2CCN(CCCOC(=O)c3cc(OC)cc(OC)c3)CC2)c1 | inactive |  | > 94 µM
COc1cc(C(=O)OCCN2CCCN(CCOC(=O)c3cc(OC)c(OC)c(OC)c3)CC2)cc(OC)c1OC | inactive |  | > 100 µM
COc1cc(C(=O)OCCCN2CCCN(Cc3ccccc3)CC2)cc(OC)c1OC | inactive |  | > 100 µM
O=C(CNc1ccc(F)cc1)CN1CCCN(CC(=O)Nc2ccc(F)cc2)CC1 | inactive |  | > 100 µM
COc1cc(C(=O)N2CCCN(C(=O)c3cc(OC)c(OC)c(OC)c3)CC2)cc(OC)c1OC | inactive |  | > 100 µM
CN1CCN(CCCOC(=O)c2ccccc2)CC1 | inactive |  | > 100 µM
O=C(NCCCN1CCN(CCCNC(=O)c2ccc3c(c2)OCO3)CC1)c1ccc2c(c1)OCO2 |  | 14.4% (inactive) | > 100 µM
O=C(OCCCN1CCCN(CCCOC(=O)c2ccc(F)cc2)CC1)c1ccc(F)cc1 | inactive |  | 66.9 µM

— PubChem BioAssay AID588782 (Southern Research Specialized Biocontainment Screening …, 2011)
